Source: patent publication US20240217992A1, “RETINOIC ACID RECEPTOR AGONIST, PREPARATION METHOD THEREFOR, INTERMEDIATE, PHARMACEUTICAL COMPOSITION AND USE” (JIANGXI KERUI PHARMACEUTICAL CO., LTD., priority 2021, published 2024)

Columns and labels:
RARγ = target: T1, RARγ (Homo sapiens, UniProt P13631); assay: Agonist activity on RARγ, dual luciferase reporter gene assay in transfected HEK-293 cells; type: cell-based; conditions: for EC50: HEK-293 cells, 24 h incubation, firefly/Renilla luciferase signal; for selectivity on RARγ compared with Trifarotene: RARγ versus RARα, from Table 2; for agonist activity on RARγ compared with Trifarotene: comparison of Table 2 EC50 values
T1 construct: expressed in transfected cells; host or cells: HEK-293 (ATCC #CRL-1573)
T1 sequence (P13631 1-454): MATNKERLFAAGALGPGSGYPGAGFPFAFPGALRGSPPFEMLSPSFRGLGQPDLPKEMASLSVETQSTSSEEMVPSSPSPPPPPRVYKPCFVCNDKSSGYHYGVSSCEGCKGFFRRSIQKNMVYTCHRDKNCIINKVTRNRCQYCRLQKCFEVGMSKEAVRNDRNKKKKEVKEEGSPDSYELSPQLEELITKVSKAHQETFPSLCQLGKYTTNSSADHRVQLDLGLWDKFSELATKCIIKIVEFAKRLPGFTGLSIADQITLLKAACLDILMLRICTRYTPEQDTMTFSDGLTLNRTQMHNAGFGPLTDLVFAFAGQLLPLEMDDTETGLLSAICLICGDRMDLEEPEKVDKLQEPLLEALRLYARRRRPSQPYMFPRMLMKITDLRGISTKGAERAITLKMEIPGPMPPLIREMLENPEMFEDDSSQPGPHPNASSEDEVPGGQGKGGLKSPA
Description: (§1) • 1. Day 1: Cell culture. The culture dish was treated with trypsin, and then cells at an appropriate concentration were inoculated into 10 mL of culture medium. Cell culture conditions: 37° C., 5% CO2, humid environment. • 2. Day 3: Transfection with FuGENE transfection reagent. A transfection mixture was prepared using the method of the supplier's instructions, then the tube was shaken vigorously to mix well, and the transfection mixture was left to incubate for 15 minutes at room temperature. The mixture was treated with trypsin to determine the cell density, and the cell suspension was appropriately diluted to the appropriate volume and density. The appropriate transfection reagent mixture was added thereto, and the cell suspension was added to a 96-well plate at 100 μL per well. The 96-well plate was incubated for 24 hours under the cell culture conditions in step 1. • 3. Day 4: Addition of test compound. The compound was formulated into a DMSO stock solution at a concentration of 210× and diluted to make a solution at a concentration of 21× by the addition of 9 times the amount of solvent. 5 μL of the compound solution at a concentration of 21× was added to each well and incubated for 24 hours under the same conditions as step 1. • 4. Day 5: Plate reading. The Dual Luciferase Reporter Gene Assay System was left at room temperature for 30 minutes prior to use, and […] was added to each well of the 96-well plate to detect the intensity of firefly luciferin in an appropriate manner. Afterwards, Stop&Glo reagent was added to detect the intensity of Renilla luciferin. • 5. Data processing. Signal=intensity of firefly luciferin/intensity of Renilla luciferin, multiple of agonist activation=compound signal/baseline signal (the intensity of the baseline signal was obtained from DMSO solution without the compound). pEC50 values were obtained by processing the data with GraphPad Prism, which were further converted to EC50 values.

RARα = target: T2, RARα (Homo sapiens, UniProt P10276); assay: Agonist activity on RARα, dual luciferase reporter gene assay in transfected HEK-293 cells; type: cell-based; conditions: 24 h incubation, firefly/Renilla luciferase signal
T2 construct: expressed in transfected cells; host or cells: HEK-293 (ATCC #CRL-1573)
T2 sequence (P10276 1-462): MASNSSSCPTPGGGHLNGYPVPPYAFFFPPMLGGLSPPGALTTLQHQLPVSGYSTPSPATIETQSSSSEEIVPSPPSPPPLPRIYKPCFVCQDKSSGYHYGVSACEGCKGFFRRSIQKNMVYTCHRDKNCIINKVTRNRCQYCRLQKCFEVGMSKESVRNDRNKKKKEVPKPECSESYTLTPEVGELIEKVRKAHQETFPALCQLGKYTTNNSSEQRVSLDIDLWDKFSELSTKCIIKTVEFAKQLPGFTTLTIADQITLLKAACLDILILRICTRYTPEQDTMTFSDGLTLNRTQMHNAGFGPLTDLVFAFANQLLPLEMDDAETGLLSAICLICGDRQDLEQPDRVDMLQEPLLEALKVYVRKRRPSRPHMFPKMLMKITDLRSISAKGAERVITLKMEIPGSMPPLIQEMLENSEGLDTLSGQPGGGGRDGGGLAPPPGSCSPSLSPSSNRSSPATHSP
Description: as §1

human hepatocytes [1] = conditions: 10 µM
Description: (§2) The metabolic stability of the compounds was tested using human hepatocytes.
(§3) • 1. The compounds and hepatocytes were incubated for 240 minutes in the following system.
(§4) The culture was inactivated with 2 volumes of acetonitrile (0.1% FA) and then centrifuged for 15 minutes at 16,000 g. • 3. The supernatant was analyzed by LC-MS/MS for prototype compounds and metabolites.

human hepatocytes [2] = assay: Hepatocyte stability (metabolic stability in human hepatocytes, LC-MS/MS); conditions: for Normalized area (240 minutes), prototype compound peak (molecular weight shift 0.00): human hepatocytes 1.0 × 10^6 cells/mL, 37° C.
Description: as §2, §3, §4

| Structure (SMILES) | EC50 (RARγ) | selectivity on RARγ compared with Trifarotene (RARγ) | agonist activity on RARγ compared with Trifarotene (RARγ) | EC50 (RARα) | Normalized area (240 minutes), Peak 4 of compound I-1 (molecular weight shift 0.02) (human hepatocytes [1]) | prototype compound remaining after 240 minutes of incubation in hepatocytes (human hepatocytes [2]; human hepatocytes) | Normalized area (240 minutes), prototype compound peak (molecular weight shift 0.00) (human hepatocytes [2]; 10 μM) | Normalized area (240 minutes), Peak 3 of Trifarotene (molecular weight shift 16.00) (human hepatocytes [2]; human hepatocytes, 10 μM, metabolite peak m/z 476.24) | Normalized area (240 minutes), Peak 1 of Trifarotene (molecular weight shift 31.99) (human hepatocytes [2]; human hepatocytes, 10 μM, metabolite peak m/z 492.24, retention time 4.18 minutes) | Normalized area (240 minutes), Peak 4 of Trifarotene (molecular weight shift 31.99) (human hepatocytes [2]; human hepatocytes, 10 μM, metabolite peak m/z 492.24, retention time 7.76 minutes) | Normalized area (240 minutes), Peak 2 of Trifarotene (molecular weight shift 192.03) (human hepatocytes [2]; human hepatocytes, 10 μM, metabolite peak m/z 652.27) |
| --- | --- | --- | --- | --- | --- | --- | --- | --- | --- | --- | --- |
| C[Si]1(C)CC[Si](C)(C)c2cc(-c3cc(-c4ccc(C(=O)O)cc4)ccc3OCCO)ccc21 [Compound I-5, 4′-(2-hydroxyethoxy)-3′-(1,1,4,4-tetramethyl-1,2,3,4-tetrahydrobenzo[b][1,4]disilan-6-yl)-[1,1′-biphenyl]-4-carboxylic acid] | 1.05 nM | better than that of Trifarotene | equal to or stronger than that of Trifarotene | 18.5 nM |  |  |  |  |  |  |  |
| C[Si](C)(C)c1cc(-c2cc(-c3ccc(C(=O)O)cc3)ccc2OCCCCO)ccc1N1CCCC1 [Compound I-3, 4′-(4-hydroxybutoxy)-4″-(pyrrolidin-1-yl)-3″-(trimethylsilyl)-[1,1′:3′,1″-terphenyl]-4-carboxylic acid] | 9.08 nM | better than that of Trifarotene |  | 382 nM |  |  |  |  |  |  |  |
| C[Si](C)(C)c1cc(-c2cc(-c3ccc(C(=O)O)cc3)ccc2OCCO)ccc1N1CCCC1 [Compound I-1, 4′-(2-hydroxyethoxy)-4′-(pyrrolidin-1-yl)-3′-(trimethylsilyl)-[1,1′:3′,1′-terphenyl]-4-carboxylic Acid] | 0.88 nM | better than that of Trifarotene | equal to or stronger than that of Trifarotene | 64 nM | 68.15% | less than 1% | 0.12% |  |  |  |  |
| C[Si](C)(C)c1cc(-c2cc(-c3ccc(C(=O)O)cc3)ccc2OCCCO)ccc1N1CCCC1 [Compound I-2, 4′-(3-hydroxypropoxy)-4″-(pyrrolidin-1-yl)-3″-(trimethylsilyl)-[1,1′:3′,1″-terphenyl]-4-carboxylic acid] | 0.77 nM | better than that of Trifarotene | equal to or stronger than that of Trifarotene | 15.5 nM |  |  |  |  |  |  |  |
| CC(C)(C)c1cc(-c2cc(-c3ccc(C(=O)O)cc3)ccc2OCCO)ccc1N1CCCC1 [Trifarotene] |  |  |  |  |  | 13.57% | 13.57% | 54.29% | 9.35% | 9.10% | 9.98% |
